From patent US20100168072A1, “Drug Combinations for the Treatment of Duchenne Muscular Dystrophy” (BIOMARIN IGA LIMITED, priority 2007, published 2010)

system: Utrophin A promoter linked to a luciferase reporter gene (H2K/mdx/Utro A reporter cell line); test: Luciferase reporter assay (murine H2K cells); assay type: cell-based; conditions: Mus musculus; final concentration of 10 μM; incubated for a further 48 hrs
Method: The cell line used for the screen is an immortalized mdx mouse H2K cell line that has been stably transfected with a plasmid containing ≈5 kb fragment of the Utrophin A promoter including the first untranslated […] linked to a luciferase reporter gene.
Under conditions of low temperature and interferon containing media, the cells remain as myoblasts. These are plated into 96 well plates and cultured in the presence of compound for three days. The level of luciferase is then determined by cell lysis and reading of the light output from the expressed luciferase gene utilising a plate luminometer.
The H2K/mdx/Utro A reporter cell line was passaged twice a week until ≦30% confluent. The cells were grown at 33° C. in the presence of 10% CO2
To remove the myoblasts for platting, they were incubated with Trypsin/EDTA until the monolayer started to detach.
• DMEM Gibco 41966 • 20% FCS • 1% Pen/Strep • 1% glutamine • 10 mls Chick embryo extract • Interferon(1276 905 Roche) Add fresh 10 μl/50 mls medium
The H2K/mdx/Utro A reporter cell line cells were plated out into 96 well plates (Falcon 353296, white opaque) at a density of approximately 5000 cells/well in 190 μl normal growth medium. The plates were then incubated at 33° C. in the presence of 10% CO2 for 24 hrs.
Compounds were dosed by adding 10 μl of diluted compound to each well giving a final concentration of 10 μM. The plates were then incubated for a further 48 hrs
Cells were then lysed in situ following the manufacture's protocols (Promega Steady-Glo Luciferase Assay System (E2520). Then counted for 10 seconds using a plate luminometer (Victor1420).

SMILES | activity at 10 µM
Cc1cc2nn(-c3ccc(Cl)cc3)nc2cc1NC(=O)c1cccnc1 [Example 1, N-(2-(4-chlorophenyl)-6-methyl-2H-benzo[d][1,2,3]triazol-5-yl)nicotinamide] | 301 to 400%
Cc1cc2nn(-c3ccc(Cl)cc3)nc2cc1NC(=O)c1ccncc1 [Example 2, N-(2-(4-chlorophenyl)-6-methyl-2H-benzo[d][1,2,3]triazol-5-yl)isonicotinamide] | 201 to 300%
Cc1cc2nn(-c3ccc(Cl)cc3)nc2cc1NC(=O)c1ccccc1 [Example 3, N-(2-(4-chlorophenyl)-6-methyl-2H-benzo[d][1,2,3]triazol-5-yl)benzamide] | < 200%
COc1ccc(C(=O)Nc2cc3nn(-c4ccc(Cl)cc4)nc3cc2C)cc1 [Example 4, N-(2-(4-chlorophenyl)-6-methyl-2H-benzo[d][1,2,3]triazol-5-yl)-4-methoxybenzamide] | 201 to 300%
COc1ccccc1C(=O)Nc1cc2nn(-c3ccc(Cl)cc3)nc2cc1C [Example 5, N-(2-(4-chlorophenyl)-6-methyl-2H-benzo[d][1,2,3]triazol-5-yl)-2-methoxybenzamide] | < 200%
Cc1cc2nn(-c3ccc(Cl)cc3)nc2cc1NC(=O)c1cccs1 [Example 6, N-(2-(4-chlorophenyl)-6-methyl-2H-benzo[d][1,2,3]triazol-5-yl)thiophene-2-carboxamide] | 301 to 400%
CCC(=O)Nc1cc2nn(-c3ccc(Cl)cc3)nc2cc1C [Example 7, N-(2-(4-chlorophenyl)-6-methyl-2H-benzo[d][1,2,3]triazol-5-yl)propionamide] | < 200%
CCCC(=O)Nc1cc2nn(-c3ccc(Cl)cc3)nc2cc1C [Example 8, N-(2-(4-chlorophenyl)-6-methyl-2H-benzo[d][1,2,3]triazol-5-yl)butyramide] | 201 to 300%
CCCCC(=O)Nc1cc2nn(-c3ccc(Cl)cc3)nc2cc1C [Example 9, N-(2-(4-chlorophenyl)-6-methyl-2H-benzo[d][1,2,3]triazol-5-yl)pentanamide] | 201 to 300%
Cc1cc2nn(-c3ccc(Cl)cc3)nc2cc1NC(=O)C(C)C [Example 10, N-(2-(4-chlorophenyl)-6-methyl-2H-benzo[d][1,2,3]triazol-5-yl)isobutyramide] | 201 to 300%
Cc1cc2nn(-c3ccc(Cl)cc3)nc2cc1NC(=O)c1ccco1 [Example 11, N-(2-(4-chlorophenyl)-6-methyl-2H-benzo[d][1,2,3]triazol-5-yl)furan-2-carboxamide] | 201 to 300%
CCN(CC)c1ccc(-n2nc3cc(C)c(NC(=O)c4cccnc4)cc3n2)cc1 [Example 12, N-(2-(4-(diethylamino)phenyl)-6-methyl-2H-benzo[d][1,2,3]triazol-5-yl)nicotinamide] | 301 to 400%
CCN(CC)c1ccc(-n2nc3cc(C)c(NC(=O)c4ccncc4)cc3n2)cc1 [Example 13, N-(2-(4-(diethylamino)phenyl)-6-methyl-2H-benzo[d][1,2,3]triazol-5-yl)isonicotinamide] | 301 to 400%
CCC(=O)Nc1cc2nn(-c3ccc(N(CC)CC)cc3)nc2cc1C [Example 14, N-(2-(4-(diethylamino)phenyl)-6-methyl-2H-benzo[d][1,2,3]triazol-5-yl)propionamide] | < 200%
CCCC(=O)Nc1cc2nn(-c3ccc(N(CC)CC)cc3)nc2cc1C [Example 15, N-(2-(4-(diethylamino)phenyl)-6-methyl-2H-benzo[d][1,2,3]triazol-5-yl)butyramide] | < 200%
CCCCC(=O)Nc1cc2nn(-c3ccc(N(CC)CC)cc3)nc2cc1C [Example 16, N-(2-(4-(diethylamino)phenyl)-6-methyl-2H-benzo[d][1,2,3]triazol-5-yl)pentanamide] | < 200%

SMILES | activity at 10 µM
CCN(CC)c1ccc(-n2nc3cc(C)c(NC(=O)C(C)C)cc3n2)cc1 [Example 17, N-(2-(4-(diethylamino)phenyl)-6-methyl-2H-benzo[d][1,2,3]triazol-5-yl)isobutyramide] | < 200%
CCN(CC)c1ccc(-n2nc3cc(C)c(NC(=O)c4ccco4)cc3n2)cc1 [Example 18, N-(2-(4-(diethylamino)phenyl)-6-methyl-2H-benzo[d][1,2,3]triazol-5-yl)furan-2-carboxamide] | < 200%
CCN(CC)c1ccc(-n2nc3ccc(N)cc3n2)cc1 [Example 19, 2-(4-(diethylamino)phenyl)-2H-benzo[d][1,2,3]triazol-5-amine] | 301 to 400%
CCN(CC)c1ccc(-n2nc3ccc(NC(=O)c4cccnc4)cc3n2)cc1 [Example 20, N-(2-(4-(diethylamino)phenyl)-2H-benzo[d][1,2,3]triazol-5-yl)nicotinamide] | 201 to 300%
CCN(CC)c1ccc(-n2nc3ccc(NC(=O)c4ccncc4)cc3n2)cc1 [Example 21, N-(2-(4-(diethylamino)phenyl)-2H-benzo[d][1,2,3]triazol-5-yl)isonicotinamide] | < 200%
CCN(CC)c1ccc(-n2nc3ccc(NC(C)=O)cc3n2)cc1 [Example 22, N-(2-(4-(diethylamino)phenyl)-2H-benzo[d][1,2,3]triazol-5-yl)acetamide] | 201 to 300%
CCC(=O)Nc1ccc2nn(-c3ccc(N(CC)CC)cc3)nc2c1 [Example 23, N-(2-(4-(diethylamino)phenyl)-2H-benzo[d][1,2,3]triazol-5-yl)propionamide] | < 200%
CCCC(=O)Nc1ccc2nn(-c3ccc(N(CC)CC)cc3)nc2c1 [Example 24, N-(2-(4-(diethylamino)phenyl)-2H-benzo[d][1,2,3]triazol-5-yl)butyramide] | < 200%
CCCCC(=O)Nc1ccc2nn(-c3ccc(N(CC)CC)cc3)nc2c1 [Example 25, N-(2-(4-(diethylamino)phenyl)-2H-benzo[d][1,2,3]triazol-5-yl)pentanamide] | < 200%
CCN(CC)c1ccc(-n2nc3ccc(NC(=O)C(C)C)cc3n2)cc1 [Example 26, N-(2-(4-(diethylamino)phenyl)-2H-benzo[d][1,2,3]triazol-5-yl)isobutyramide] | < 200%
CCN(CC)c1ccc(-n2nc3ccc(NC(=O)c4ccco4)cc3n2)cc1 [Example 27, N-(2-(4-(diethylamino)phenyl)-2H-benzo[d][1,2,3]triazol-5-yl)furan-2-carboxamide] | < 200%
CCN(CC)c1ccc(-n2nc3ccc(NC(=O)c4cccs4)cc3n2)cc1 [Example 28, N-(2-(4-(diethylamino)phenyl)-2H-benzo[d][1,2,3]triazol-5-yl)thiophene-2-carboxamide] | < 200%
CCN(CC)c1ccc(-n2nc3ccc(NC(=O)c4ccccc4)cc3n2)cc1 [Example 29, N-(2-(4-(diethylamino)phenyl)-2H-benzo[d][1,2,3]triazol-5-yl)benzamide] | < 200%
CCN(CC)c1ccc(-n2nc3ccc(NC(=O)c4ccc(OC)cc4)cc3n2)cc1 [Example 30, N-(2-(4-(diethylamino)phenyl)-2H-benzo[d][1,2,3]triazol-5-yl)-4-methoxybenzamide] | < 200%
CCN(CC)c1ccc(-n2nc3ccc(NC(=O)c4ccccc4OC)cc3n2)cc1 [Example 31, N-(2-(4-(diethylamino)phenyl)-2H-benzo[d][1,2,3]triazol-5-yl)-2-methoxybenzamide] | < 200%
